Where only a bound is given, the exact number is not on record here.

Data on 26 molecules can be found in US12209087B2, “AKT1 modulators” (Alterome Therapeutics, Inc., priority 2022, dated 2025).

The target in one experiment is T1, full length AKT E17K (Homo sapiens, UniProt P31749, E17K).
T1 construct: host or cells: HEK-293 (ATCC CRL-1573)
T1 sequence (P31749 whole entry E17K): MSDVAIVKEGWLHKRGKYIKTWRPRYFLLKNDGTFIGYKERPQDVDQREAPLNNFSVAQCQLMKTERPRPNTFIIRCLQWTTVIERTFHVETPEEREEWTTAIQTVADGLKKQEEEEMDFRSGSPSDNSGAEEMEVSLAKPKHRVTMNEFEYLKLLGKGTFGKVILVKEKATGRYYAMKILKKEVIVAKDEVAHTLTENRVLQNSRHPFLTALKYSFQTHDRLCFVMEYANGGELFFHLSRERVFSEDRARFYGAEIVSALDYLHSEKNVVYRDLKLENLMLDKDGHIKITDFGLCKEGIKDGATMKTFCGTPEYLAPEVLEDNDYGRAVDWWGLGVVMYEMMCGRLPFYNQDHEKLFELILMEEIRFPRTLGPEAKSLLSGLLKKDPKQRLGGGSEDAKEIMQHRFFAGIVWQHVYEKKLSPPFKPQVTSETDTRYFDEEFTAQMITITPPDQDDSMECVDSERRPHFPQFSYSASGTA
In words: NanoBRET Target Engagement (TE) Assay. The class given is cell-based. The conditions noted are these: competitive displacement of tracer in cells, read-out: AKT1 E17K IC50. Put shortly:
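Compound and tracer incubated 2 h before luminescence at donor 450 nm and acceptor 600 nm, with extracellular signal inhibited. EC50 by sigmoidal variable-slope regression.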
Usually IC50 stands for the concentration that inhibits the measured activity by half. In the case of `N#Cc1nccc(N2C[C@@H]3C[C@H]2CN3Cc2ccc(-n3c(-c4cccnc4N)nc4ccc(-c5ccccc5)nc43)cc2)n1` [Example 375, 4-((1S,4S)-5-(4-(2-(2-Aminopyridin-3-yl)-5-phenyl-3H-imidazo[4,5-b]pyridin-3-yl)benzyl)-2,5-diazabicyclo[2.2.1]heptan-2-yl)pyrimidine-2-carbonitrile], the 50% inhibitory concentration (IC50) lay in the range of 15 to 60 nM.
Same read-out and setting: with `Cc1cc(-c2ccc3nc(-c4cccnc4N)n(-c4ccc(CN5CCC(Nc6ccnc(C#N)n6)CC5)cc4)c3n2)[nH]n1` [Example 465, 4-((1-(4-(2-(2-Aminopyridin-3-yl)-5-(3-methyl-1H-pyrazol-5-yl)-3H-imidazo[4,5-b]pyridin-3-yl)benzyl)piperidin-4-yl)amino)pyrimidine-2-carbonitrile] the figure was below 15 nM; with `[2H]C([2H])([2H])N(c1ccnc(C#N)n1)C1CCN(C([2H])([2H])c2ccc(-n3c(-c4cccnc4N)nc4ccc(-c5ccc(F)cc5)nc43)cc2)CC1` [Example 442, 4-((1-((4-(2-(2-Aminopyridin-3-yl)-5-(4-fluorophenyl)-3H-imidazo[4,5-b]pyridin-3-yl)phenyl)methyl-d2)piperidin-4-yl)(methyl-d3)amino)pyrimidine-2-carbonitrile], below 15 nM.
The same measure, in the same setting: then `N#Cc1nccc(NC2CCN(Cc3ccc(-n4c(-c5cccnc5N)nc5ccc(-c6cscn6)nc54)cc3)CC2)n1` [Example 482, 4-((1-(4-(2-(2-Aminopyridin-3-yl)-5-(thiazol-4-yl)-3H-imidazo[4,5-b]pyridin-3-yl)benzyl)piperidin-4-yl)amino)pyrimidine-2-carbonitrile], with below 15 nM.
As for `Cc1nncn1-c1ccc2nc(-c3cccnc3N)n(-c3ccc(CN4CCC(Nc5ccnc(C#N)n5)CC4)cc3)c2n1` [Example 588, 4-((1-(4-(2-(2-aminopyridin-3-yl)-5-(3-methyl-4H-1,2,4-triazol-4-yl)-3H-imidazo[4,5-b]pyridin-3-yl)benzyl)piperidin-4-yl)amino)pyrimidine-2-carbonitrile], the half-maximal inhibitory concentration (IC50) was in the range of 15 to 60 nM.
As for `N#Cc1nccc(NC2CCN(Cc3ccc(-n4c(-c5cccnc5N)nc5ccc(N6CCC6)nc54)cc3)CC2)n1` [Example 460, 4-((1-(4-(2-(2-Aminopyridin-3-yl)-5-(azetidin-1-yl)-3H-imidazo[4,5-b]pyridin-3-yl)benzyl)piperidin-4-yl)amino)pyrimidine-2-carbonitrile], the IC50 is below 15 nM.
As for `N#Cc1ccnc(NC2CCN(Cc3ccc(-n4c(-c5cccnc5N)nc5ccc(C6CC6)nc54)cc3)CC2)n1` [Example 351, 2-((1-(4-(2-(2-Aminopyridin-3-yl)-5-cyclopropyl-3H-imidazo[4,5-b]pyridin-3-yl)benzyl)piperidin-4-yl)amino)pyrimidine-4-carbonitrile], the IC50 is 15 to 60 nM.
Still for that read-out and setting: with `N#Cc1ccnc(NC2CCN(Cc3ccc(-n4c(-c5cccnc5N)nc5ccc(-c6ccc(F)cc6)nc54)cc3)CC2)n1` [Example 352, 2-((1-(4-(2-(2-Aminopyridin-3-yl)-5-(4-fluorophenyl)-3H-imidazo[4,5-b]pyridin-3-yl)benzyl)piperidin-4-yl)amino)pyrimidine-4-carbonitrile] the figure was 15 to 60 nM.
Regarding `N#Cc1nccc(NC2CCN(Cc3ccc(-n4c(-c5cccnc5N)nc5ccc(-c6cnc(F)cn6)nc54)cc3)CC2)n1` [Example 605, 4-((1-(4-(2-(2-Aminopyridin-3-yl)-5-(5-fluoropyrazin-2-yl)-3H-imidazo[4,5-b]pyridin-3-yl)benzyl)piperidin-4-yl)amino)pyrimidine-2-carbonitrile], the IC50 is below 15 nM.
For `CCOc1ccc(-c2ccc3nc(-c4cccnc4N)n(-c4ccc(CN5CCC(Nc6ccnc(C#N)n6)CC5)cc4)c3n2)nc1` [Example 560, 4-((1-(4-(2-(2-Aminopyridin-3-yl)-5-(5-ethoxypyridin-2-yl)-3H-imidazo[4,5-b]pyridin-3-yl)benzyl)piperidin-4-yl)amino)pyrimidine-2-carbonitrile], the 50% inhibitory concentration (IC50) was below 15 nM.
For `N#Cc1ccnc(N2CCN(Cc3ccc(-n4c(-c5cccnc5N)nc5ccc(-c6cccc(=O)[nH]6)nc54)cc3)CC2)n1` [Example 333, 2-(4-(4-(2-(2-Aminopyridin-3-yl)-5-(6-oxo-1,6-dihydropyridin-2-yl)-3H-imidazo[4,5-b]pyridin-3-yl)benzyl)piperazin-1-yl)pyrimidine-4-carbonitrile], the IC50 was in the range of 15 to 60 nM.
Still for that read-out and setting: then `N#Cc1ccnc(NC2CCN(Cc3ccc(-n4c(-c5cccnc5N)nc5ccc(N6CCCNC(=O)C6)nc54)cc3)CC2)n1` [Example 347, 2-((1-(4-(2-(2-Aminopyridin-3-yl)-5-(3-oxo-1,4-diazepan-1-yl)-3H-imidazo[4,5-b]pyridin-3-yl)benzyl)piperidin-4-yl)amino)pyrimidine-4-carbonitrile], with 60 to 600 nM; and `N#Cc1ncnc(N2CCN(Cc3ccc(-n4c(-c5cccnc5N)nc5ccc(-c6ccccc6)nc54)cc3)CC2)n1` [Example 328, 4-(4-(4-(2-(2-aminopyridin-3-yl)-5-phenyl-3H-imidazo[4,5-b]pyridin-3-yl)benzyl)piperazin-1-yl)-1,3,5-triazine-2-carbonitrile], with below 15 nM.

The experiment is the same for the next values; noted with them: competitive tracer displacement in living cells, read-out: AKT1 E17K IC50.
Regarding `N#Cc1cc(C(=O)NCc2ccc(-n3c(-c4cccnc4N)nc4cccnc43)cc2)ncn1` [Example 113, N-(4-(2-(2-Aminopyridin-3-yl)-3H-imidazo[4,5-b]pyridin-3-yl)benzyl)-6-cyanopyrimidine-4-carboxamide], the half-inhibitory concentration (IC50) lay within 600 to 10000 nM.
For the molecule `N#Cc1cc(C(=O)N2CCN(Cc3ccc(-n4c(-c5cccnc5N)nc5cc(-c6ccccc6)cnc54)cc3)CC2)ccn1` [Example 137, 4-(4-(4-(2-(2-Aminopyridin-3-yl)-6-phenyl-3H-imidazo[4,5-b]pyridin-3-yl)benzyl)piperazine-1-carbonyl)picolinonitrile], the half-maximal inhibitory concentration (IC50) fell in the range of 600 to 10000 nM.
For the molecule `N#Cc1nccc(N2CC3CCC(C2)N3Cc2ccc(-n3c(-c4cccnc4N)nc4ccc(-c5ccccc5)nc43)cc2)n1` [Example 211, 4-(8-(4-(2-(2-Aminopyridin-3-yl)-5-phenyl-3H-imidazo[4,5-b]pyridin-3-yl)benzyl)-3,8-diazabicyclo[3.2.1]octan-3-yl)pyrimidine-2-carbonitrile], the half-maximal inhibitory concentration (IC50) was below 15 nM.
Same read-out and setting: then `C[C@H]1CN(Cc2ccc(-n3c(-c4cccnc4N)nc4ccc(-c5ccccc5)nc43)cc2)C[C@H](C)N1c1cc(C#N)ncn1` [Example 194, 6-((2S,6S)-4-(4-(2-(2-Aminopyridin-3-yl)-5-phenyl-3H-imidazo[4,5-b]pyridin-3-yl)benzyl)-2,6-dimethylpiperazin-1-yl)pyrimidine-4-carbonitrile], with 60 to 600 nM; and `N#Cc1cc(C(=O)N2CCN(Cc3ccc(-n4c(-c5cccnc5N)nc5cccnc54)cc3)CC2)ncn1` [Example 114, 6-(4-(4-(2-(2-Aminopyridin-3-yl)-3H-imidazo[4,5-b]pyridin-3-yl)benzyl)piperazine-1-carbonyl)pyrimidine-4-carbonitrile], with 60 to 600 nM.
On to `N#Cc1nccc(NC2CCN(Cc3ccc(-n4c(-c5cccnc5N)nc5ccc(-c6cccc(=O)[nH]6)nc54)cc3)CC2)n1` [Example 267, 4-((1-(4-(2-(2-Aminopyridin-3-yl)-5-(6-oxo-1,6-dihydropyridin-2-yl)-3H-imidazo[4,5-b]pyridin-3-yl)benzyl)piperidin-4-yl)amino)pyrimidine-2-carbonitrile], for which the IC50 was below 15 nM.
`N#Cc1cc(NC2CCN(Cc3ccc(-n4c(-c5cccnc5N)nc5ccc(-c6ccccc6F)nc54)cc3)CC2)ncn1` [Example 315, 6-((1-(4-(2-(2-Aminopyridin-3-yl)-5-(2-fluorophenyl)-3H-imidazo[4,5-b]pyridin-3-yl)benzyl)piperidin-4-yl)amino)pyrimidine-4-carbonitrile]: the IC50 lay in the range of 15 to 60 nM.
Same read-out and setting: then `[2H]C([2H])([2H])N(c1ncnc(C#N)n1)C1CCN(Cc2ccc(-n3c(-c4cccnc4N)nc4ccc(-c5ccccc5)nc43)cc2)CC1` [Example 233, 4-((1-(4-(2-(2-Aminopyridin-3-yl)-5-phenyl-3H-imidazo[4,5-b]pyridin-3-yl)benzyl)piperidin-4-yl)(methyl-d3)amino)-1,3,5-triazine-2-carbonitrile], with 15 to 60 nM; and `N#Cc1nccc(C(=O)N2CCN(Cc3ccc(-n4c(-c5cccnc5N)nc5cccnc54)cc3)CC2)n1` [Example 152, 4-(4-(4-(2-(2-aminopyridin-3-yl)-3H-imidazo[4,5-b]pyridin-3-yl)benzyl)piperazine-1-carbonyl)pyrimidine-2-carbonitrile], with 60 to 600 nM; and `N#Cc1ncnc(N2CC[C@@]3(CCN(Cc4ccc(-n5c(-c6cccnc6N)nc6ccc(-c7ccccc7)nc65)cc4)C3)C2)n1` [Example 255, (R)-4-(7-(4-(2-(2-aminopyridin-3-yl)-5-phenyl-3H-imidazo[4,5-b]pyridin-3-yl)benzyl)-2,7-diazaspiro[4.4]nonan-2-yl)-1,3,5-triazine-2-carbonitrile], with below 15 nM.
In the case of `N#Cc1ccnc(NC2CCN(Cc3ccc(-n4c(-c5cccnc5N)nc5ccc(-c6ccccc6F)nc54)cc3)CC2)n1` [Example 313, 2-((1-(4-(2-(2-Aminopyridin-3-yl)-5-(2-fluorophenyl)-3H-imidazo[4,5-b]pyridin-3-yl)benzyl)piperidin-4-yl)amino)pyrimidine-4-carbonitrile], the 50% inhibitory concentration (IC50) was below 15 nM.
Still for that read-out and setting: with `N#Cc1nc2cc(C(=O)N3CCN(Cc4ccc(-n5c(-c6cccnc6N)nc6ccc(-c7ccccc7)nc65)cc4)CC3)ccc2s1` [Example 184, 5-(4-(4-(2-(2-aminopyridin-3-yl)-5-phenyl-3H-imidazo[4,5-b]pyridin-3-yl)benzyl)piperazine-1-carbonyl)benzo[d]thiazole-2-carbonitrile] the figure was below 15 nM; with `CC(C)c1ccc2nc(-c3cccnc3N)n(-c3ccc(CN4CCC(Nc5ccnc(C#N)n5)CC4)cc3)c2n1` [Example 286, 4-((1-(4-(2-(2-Aminopyridin-3-yl)-5-isopropyl-3H-imidazo[4,5-b]pyridin-3-yl)benzyl)piperidin-4-yl)amino)pyrimidine-2-carbonitrile], below 15 nM.
